{"source": "patent US10864261B2", "about": "“Synthetic vaccines against Streptococcus pneumoniae serotype 2” (Max-Planck-Gesellschaft zur Förderung der Wissenschaften …, priority 2015, dated 2020)", "test_system": "synthetic oligosaccharides and native S. pneumoniae serotype 2 capsular polysaccharides printed on slides", "details": "mice s.c., pooled sera", "method": "On day 14 and 28 mice were received a booster injection with the same amount of antigen emulsified with 1:1 (v/v) alum. […] Mice were bled submandibular weekly using sterile single-use blood lancet. Control mice received only PBS and PBS in alum. The antibody responses were measured in both sera by glycan microarray and ELISA.\nPreparation of microarrays slides: The CodeLink NHS activated glass slides (Surmodics) were spotted with synthetic glycans and native polysaccharides at two different concentration (100 μM and 200 μM) in printing buffer (50 mM sodium phosphate, pH 8.5) by using a S3 piezoelectric microarray printer (Scienion) equipped with a type 4 coated nozzle. The relative humidity of spotted chamber was constantly maintained at 65%. The spotted slides were incubated over night at room temperature in a humidifying chamber. […]\nMicroarray binding assays: The printed slides were blocked with PBS-BSA (1%) for 1 h at room temperature and washed 3 times with PBS. […] Slides were incubated with a fluorescence-labeled goat anti-mouse secondary antibodies (Life Technologies) diluted in 1% BSA in PBS (w/v) in a humid chamber for 1 h at room temperature, washed three times with PBST, rinsed once with deionized water and dried by centrifugation (300×g, 5 min) prior to scanning with a GenePix 4300A microarray scanner (Molecular Devices, Sunnyvale, Calif., USA). […]"}
{"smiles": "C[C@@H]1O[C@H](O[C@H]2[C@H](O)[C@@H](O)[C@H](O[C@@H]3[C@@H](O)[C@H](C)O[C@@H](O[C@@H]4[C@@H](O)[C@H](C)O[C@@H](OCCCCCN)[C@@H]4O)[C@@H]3O[C@H]3O[C@H](CO[C@H]4O[C@H](C(=O)O)[C@@H](O)[C@H](O)[C@H]4O)[C@@H](O)[C@H](O)[C@H]3O)O[C@@H]2CO)[C@H](O)[C@H](O)[C@H]1O", "note": "[hexasaccharide 2, 5-amino pentyl β-L-rhamnopyranosyl-(1→4)-β-D-glucopyranosyl-(1→3)-α-L-{α-D-glucopyranosyl uronate-(1→6)-α-D-glucopyranosyl-(1→2)}rhamnopyranosyl-(1→3)-α-L-rhamnopyranoside]", "values": [{"measurement": "antibody response specific to hexasaccharide 2 / core glycan structures (immunogenicity)", "setting": "3 μg sugar per dose with alum 1:1, boosts day 14 and 28, anti-mouse IgG", "value": "immunogenic in mice"}, {"measurement": "cross-reactivity of raised antibodies with other fragments of hexasaccharide 2 printed on the slides", "setting": "3 μg sugar per dose with alum 1:1", "value": "induces cross-reactive antibodies"}]}
